The values below come from US20230391729A1, “SUCCINATE SALTS OF N-(3-(4-(3-(DIISOBUTYLAMINO)PROPYL)PIPERAZIN-1-YL)PROPYL)-1H-BENZO[D]IMIDAZOL-2-AMINE, PREPARATION THEREOF AND USE OF THE SAME” (ALZPROTECT, priority 2020, published 2023).

The test system of the test is microglial cells. Description: Microglia activation (OX-41) after Aβ1-42 injury. The note with it: Aβ1-42 injury 72 h; at the investigated doses. Type of test: cell-based, rat. As for the experimental part:
Rat cortical neurons cultured with microglia were cultured as described by Callizot et al. in J Neurosci Res. 2013, 91: 706-716 with modifications to include microglial cells. Pregnant female rats (Rats Wistar; Janvier Labs France) of 15 days of gestation were killed, after a deep anesthesia with CO2, by cervical dislocation. Then, fetuses were collected and immediately placed in ice-cold L15 Leibovitz medium with a 2% penicillin (10,000 U/ml) and streptomycin (10 mg/ml) solution (PS) and 1% bovine serum albumin (BSA). Cortexes were treated for 20 min at 37° C. with a trypsin-EDTA solution at a final concentration of 0.05% trypsin and 0.02% EDTA. The dissociation was stopped by addition of Dulbecco's modified Eagle's medium (DMEM) with 4.5 g/liter of glucose, containing DNAse I grade II (final concentration 0.5 mg/ml) and 10% fetal calf serum (FCS). Cells were mechanically dissociated by three forced passages through the tip of a 10-mL pipette. […] Viable cells were counted in a Neubauer cytometer, using the trypan blue exclusion test. […]
Cortical neurons were intoxicated with A3 solutions (see below) after 11 days of culture. […] This solution was gently agitated for 3 days at 37° C. in the dark and immediately used after being properly diluted in control medium to the concentrations used ([…] of Aβ1-42 preparation containing […] of Aβ oligomers (AβO) measured by WB). […]

For the substance “N-(3-(4-(3-(diisobutylamino)propyl)piperazin-1-yl)propyl)-1H-benzo[d]imidazol-2-amine sesqui-succinate salt [sesqui-succinate salt Form 1]”, the “activation of microglial cells (OX41 area)” value is given as “able to decrease the activation of microglial cells”.
